Results as given in PMC9317316, “Synthesis and Evaluation of Some New 4H-Pyran Derivatives as Antioxidant, Antibacterial and Anti-HCT-116 Cells of CRC, with Molecular Docking, Antiproliferative, Apoptotic and ADME Investigations” (Pharmaceuticals, 2022).
Several values for one entry are separate records, joined by “and”; a condition that tells them apart may be missing. Identical values can stand only once. Like-named read-outs stand apart in the source and are kept apart here.

What was measured:
[1] = DPPH radical scavenging assay; settings: for IC50: 0.03 to 1 mg/mL, 1 h, mean ± SD, triplicate, read-out: IC50 (mM) for DPPH Scavenging Potency
Procedure: The IC50 values for DPPH were calculated from the plot of the scavenging effect against the compound concentration.
The compounds’ capacities to scavenge the stable radical 1,1 diphenyl-2-picrylhydrazyl (DPPH) formed in solution by donation of a hydrogen atom or an electron was investigated according to the method described by Bersuder and coworkers. Due to the fact that the initial blue/purple solution of diphenyl picrylhydrazine changes to yellow in the presence of compounds with a capacity to scavenge DPPH free radicals, this reaction is used as a measure of a compound’s ability to scavenge any free radical. Briefly, a 0.5 mL volume of DPPH ethanolic solution was mixed with an equal volume of each sample concentration (0.03 to 1 mg/mL), shaken strongly and incubated at room temperature for 1 h in darkness. The absorbance of the residual DPPH radicals was measured at 519 nm and compared to that of the control (without the tested compound). DPPH radical scavenging was calculated using the following formula: Scavenging effect (%) = (1 − Acompound/AControl) × 100, where Acompound and Acontrol are the absorbances of the tested compound and of the control, respectively. A plot of the scavenging effect (%) versus the sample concentration was also performed to determine the compound concentration providing 50% inhibition (IC50).

[2] = Reducing power assay (FRAC, Fe3+ to Fe2+); settings: 0-1 mg/mL, absorbance 700 nm
Procedure: Secondly, FRAC was determined over the concentration range of 0.0−1 mg/mL via monitoring Fe^3+−Fe^2+ transformation in the presence of the studied compounds and the reference antioxidant BHT to estimate the values of efficient concentration (EC50), expressed in mM.
The reducing power of the studied compounds was assessed according to Oyaizu’s method. Briefly, different concentrations (ranging from 0 to 1 mg/mL) of each tested compound were first mixed with 1 mL of 0.2 M sodium phosphate buffer (pH 6.6) and 1 mL of 1% potassium ferricyanide (K3Fe(CN)6) and incubated at 50 °C for 20 min. After the addition of 1.25 mL of 20% trichloroacetic acid (TCA), the mixture was centrifuged for 10 min at 3000 rpm and the upper layer solution was then mixed with 0.5 mL of 0.1% fresh ferric chloride and an equal volume of deionized water. Finally, the absorption of the resulting mixture was measured at 700 nm using a UV spectrophotometer against distilled water as the blank, while butylated hydroxytoluene (BHT) was used as a positive control. The sample ferric reducing power capability was indicated by increased absorbance.

B. cereus (ATCC 14579) [3] = assay: Antibacterial agar diffusion method (inhibition zone); type: cell-based
Procedure: (§1) The results for the in vitro antibacterial properties of the synthesized compounds against five Gram-positive and four Gram-negative human-pathogenic strains, which were assessed by both the agar diffusion method (based on inhibition zone (IZ)) and the broth dilution bioassay (for the determination of the half-maximal inhibitory concentration (IC50) values), using ampicillin as the reference antibiotic drug, are shown in Table 2 and Table 3.
(§2) The antibacterial activity of all synthesized compounds was evaluated against the Gram-negative strains E. coli (ATCC 25966), K. pneumonia (ATCC 700603), P. aeruginosa (ATCC 27853) and S. enteric (ATCC 43972) and against the Gram-positive strains B. cereus (ATCC 14579), B. subtilis (ATCC 6633), E. faecalis (ATCC 29122), S. aureus (ATCC 25923) and S. epidermidis (ATCC 14990), using the agar diffusion method through measuring the appearance of the inhibition zone on the surface of the top agar, as reported by Berghe and Vlietinck. Ampicillin (10 µg/well) was used as the positive reference standard. Bacterial viability was also investigated by determining the colony-forming ability (CFU) of bacteria incubated at different time intervals without or with appropriate amounts of the compound, which were mixed with 2 ×10^7 CFU/mL in sterile BHI and incubated under shaking for 60 min at 37 °C. Samples were serially diluted into sterile BHI, streaked onto media agar plates and incubated for 24 h at 37 °C. The antibacterial potency of the tested compounds was expressed as the residual number of CFUs with reference to the initial inoculums. The results presented as the half-maximal (50 %) inhibitory concentration (IC50) values are the means of three different measurements.

B. subtilis (ATCC 6633) [4] = assay: as above; type: cell-based
Procedure: as §1, §2

E. coli (ATCC 25966) [5] = assay: as above; type: cell-based; settings: E. coil (ATCC 25966)
Procedure: as §1, §2

E. faecalis (ATCC 29122) [6] = assay: as above; type: cell-based
Procedure: as §1, §2

[7] = tested on: K. pneumonia (ATCC 700603); assay: as above; type: cell-based
Procedure: as §1, §2

[8] = tested on: P. aeruginosa (ATCC 27853); assay: as above; type: cell-based
Procedure: as §1, §2

S. aureus (ATCC 25923) [9] = assay: as above; type: cell-based
Procedure: as §1, §2

S. enteric (ATCC 43972) [10] = assay: as above; type: cell-based
Procedure: as §1, §2

[11] = tested on: S. epidermidis (ATCC 14990); assay: as above; type: cell-based
Procedure: as §1, §2

B. cereus (ATCC 14579) [12] = assay: Antibacterial viability (CFU) assay, IC50; type: cell-based; settings: Bacillus cereus, ATCC14579
Procedure: as §1, §2

B. subtilis (ATCC 6633) [13] = assay: Antibacterial viability (CFU) assay, IC50; type: cell-based
Procedure: as §1, §2

E. coli (ATCC 25966) [14] = assay: Antibacterial viability (CFU) assay, IC50; type: cell-based; settings: Escherichia coli, ATCC25966; E. coil (ATCC 25966)
Procedure: as §1, §2

E. faecalis (ATCC 29122) [15] = assay: Antibacterial viability (CFU) assay, IC50; type: cell-based; settings: Enterococcus faecalis, ATCC29122
Procedure: as §1, §2

[16] = tested on: K. pneumonia (ATCC 700603); assay: Antibacterial viability (CFU) assay, IC50; type: cell-based; settings: Klebsiella pneumoniae, ATCC700603
Procedure: as §1, §2

[17] = tested on: P. aeruginosa (ATCC 27853); assay: Antibacterial viability (CFU) assay, IC50; type: cell-based; settings: Pseudomonas aeruginosa, ATCC27853
Procedure: as §1, §2

S. aureus (ATCC 25923) [18] = assay: Antibacterial viability (CFU) assay, IC50; type: cell-based; settings: Staphylococcus aureus, ATCC25923
Procedure: as §1, §2

S. enteric (ATCC 43972) [19] = assay: Antibacterial viability (CFU) assay, IC50; type: cell-based; settings: read-out: IC50
Procedure: as §1, §2

[20] = tested on: S. epidermidis (ATCC 14990); assay: Antibacterial viability (CFU) assay, IC50; type: cell-based; settings: Staphylococcus epidermidis, ATCC14990
Procedure: as §1, §2

HCT-116 cells = assay: Cell viability (cytotoxicity, LDH release) assay; type: cell-based; settings: Homo sapiens, 24 h; for viability at 100 µg/mL: read-out: percent of viable cells
Procedure: The synthesized compounds were also examined at four concentrations (10, 25, 50 and 100 µg/mL) for their cytotoxic effects on human colorectal cancer HCT-116 cells after their incubation together for 24 h.
Cytotoxic potency was examined for a human colon cancer cell line HCT-116 (American Type Culture Collection; Manassas, VA, USA) using various amounts of each compound (10, 25, 50 and 100 µg). Samples were diluted in Dulbecco’s Modified Eagle’s Medium, consisting of 10% Fetal Bovine Serum, and added to cells grown and cultured for 24 h in a 5% CO2-humidified incubator at 37 °C. Then, the activity of lactate dehydrogenase released from damaged cells was determined in the collected supernatant aliquots using an ELISA endpoint assay (Benchmark Plus, Bio-Rad, Hercules, CA, USA). As positive and negative controls, respectively, 0.1% Triton X-100 in the assay medium and the assay medium only were used. Cell viability, shown as mean values ± SDs (n = 3), was expressed as a relative percentage of the OD values determined at 600 nm in compound-treated cells and the control.

[21] = Bacillus subtilis, ATCC6633, B. subtilis (ATCC 6633)
[22] = read-out: Mean IC50 (µM) of cytotoxicity
[23] = read-out: Mean IC50 (µg/mL) of cytotoxicity

| SMILES | IC50 [1] | DPPH Radical Scavenging Effenciency (%) at 1 mg/mL [1] | IZ (mm) (B. cereus (ATCC 14579) [3]) | IZ (mm) (B. subtilis (ATCC 6633) [4]) | IZ (mm) (E. coli (ATCC 25966) [5]) | IZ (mm) (E. faecalis (ATCC 29122) [6]) | IZ (mm) [7] | IZ (mm) [8] | IZ (mm) (S. aureus (ATCC 25923) [9]) | IZ (mm) (S. enteric (ATCC 43972) [10]) | IZ (mm) [11] | IC50 (B. cereus (ATCC 14579) [12]) | IC50 (B. subtilis (ATCC 6633) [13]; [21]) | IC50 (E. coli (ATCC 25966) [14]) | IC50 (E. faecalis (ATCC 29122) [15]) | IC50 [16] | IC50 [17] | IC50 (S. aureus (ATCC 25923) [18]) | IC50 (S. enteric (ATCC 43972) [19]) | IC50 [20] | also measured |
| --- | --- | --- | --- | --- | --- | --- | --- | --- | --- | --- | --- | --- | --- | --- | --- | --- | --- | --- | --- | --- | --- |
| CC1=C(C(=O)OCc2ccccc2)C(c2ccc(F)cc2)C(C#N)=C(N)O1 (centres unmarked) [4i, 6-Amino-5-cyano-4-(4-fluoro-phenyl)-2-methyl-4H-pyran-3-carboxylic acid benzyl ester] | 1.78 ± 0.115 mM | 26.05 ± 1.06% | 14.50 ± 0.71 mm | 9.50 mm and 9.50 ± 0.71 mm | 5.5 ± 0.71 mm | 6.50 ± 0.71 mm | 6.5 ± 0.7 mm | 8.5 ± 0.7 mm | 9.50 ± 2.12 mm | 8.0 ± 1.4 mm | 11.50 ± 0.71 mm | 38 ± 1.37 µM | 23.6 to 36.8 µM | 82.6 ± 1.65 µM | 37.5 ± 1.37 µM | 79.9 ± 3.02 µM | 62 ± 2.2 µM | 40.2 ± 1.37 µM | 91.5 ± 2.74 µM | 46 ± 0.96 µM | EC50 [2]: 274 ± 39 µM; IC50 (B. subtilis (ATCC 6633) [13]; B. subtilis (ATCC 6633)): 31.6 ± 1.95 µM; viability at 100 µg/mL (HCT-116 cells): 11 to 32.5%; IC50 (HCT-116 cells; [22]): 181 ± 12.4 µM; IC50 (HCT-116 cells; [23]): 66 ± 4.53 µg/mL; melting point: 124 to 126 °C |
| CC1(C)S[C@@H]2[C@H](NC(=O)[C@H](N)c3ccccc3)C(=O)N2[C@H]1C(=O)O [Ampicillin, reference compound] | – | – | 23.50 ± 0.71 mm | 25.50 ± 0.71 mm | 23.5 ± 0.71 mm | 24.50 ± 0.71 mm | 21.0 ± 1.4 mm | 21.5 ± 0.7 mm | 21.50 ± 0.71 mm | 19.5 ± 0.7 mm | 22.50 ± 0.71 mm | 25.8 ± 0.57 µM | 37.2 ± 1.43 µM | 58 ± 4.87 µM | 36.5 ± 3.03 µM | 32.9 ± 2.29 µM | 41.5 ± 1.72 µM | 38.6 ± 2 µM | 14.9 ± 0.34 µM | 50.1 ± 3.43 µM | IZ (mm) (B. cereus (ATCC 14579) [3]; listed as ampicillin): 23.50 mm; IZ (mm) (B. subtilis (ATCC 6633) [4]; listed as ampicillin): 25.50 mm; IZ (mm) (E. faecalis (ATCC 29122) [6]; listed as ampicillin): 24.50 mm; IZ (mm) (S. aureus (ATCC 25923) [9]; listed as ampicillin): 21.50 mm; IZ (mm) ([11]; listed as ampicillin): 22.50 mm |
| CCOC(=O)C1=C(C)OC(N)=C(C#N)C1c1c(OC)cc(OC)cc1OC (centres unmarked) [4h, 6-Amino-5-cyano-2-methyl-4-(2,4,6-trimethoxy-phenyl)-4H-pyran-3-carboxylic acid ethyl ester] | 1.31 ± 0.075 mM | 33.50 ± 2.12% | 4.50 ± 0.71 mm | 6.00 ± 1.41 mm | 1.5 ± 0.71 mm | 8.00 ± 1.41 mm | 3.5 ± 0.7 mm | 4.5 ± 0.7 mm | 17.50 mm and 17.50 ± 0.71 mm | 5.5 ± 0.7 mm | 16.50 ± 0.71 mm | 46.5 ± 1.52 µM | 50.1 ± 2.83 µM | 114 ± 0.8 µM | 45.9 ± 0.75 µM | 118 ± 2.67 µM | 89.5 ± 2.94 µM | 32.7 ± 0.93 µM | 112 ± 2.94 µM | 35.8 ± 1.52 µM | EC50 [2]: 221 ± 11 µM; viability at 100 µg/mL (HCT-116 cells): 11 to 32.5%; IC50 (HCT-116 cells; [22]): 185 ± 11.5 µM; IC50 (HCT-116 cells; [23]): 69.2 ± 4.29 µg/mL; melting point: 196 to 198 °C |
